Results as given in ChEMBL document CHEMBL3769401, “The first potent diphenyl phosphonate KLK4 inhibitors with unexpected binding kinetics” (Medchemcomm, 2015).
The source made the active and inactive calls. The rule behind the calls is not given here.

Columns and labels:
Prothrombin [1] = target: T1, Prothrombin (Homo sapiens, UniProt P00734); experiment: Inhibition of human plasma thrombin using Biophen CS-21(66) as substrate preincubated for 15 mins followed by substrate addition by microplate reader analysis; assay type: cell-free
Coagulation factor X = Coagulation factor X (Homo sapiens, UniProt P00742); experiment: Inhibition of factor 10a (unknown origin) using Biophen CS-11(32) as substrate
Coagulation factor X, sequence (P00742 41-179 limits assumed): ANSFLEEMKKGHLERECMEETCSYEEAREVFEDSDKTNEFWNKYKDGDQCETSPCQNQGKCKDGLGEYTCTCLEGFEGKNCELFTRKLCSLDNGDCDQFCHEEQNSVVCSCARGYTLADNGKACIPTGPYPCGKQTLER
Coagulation factor X, sequence (P00742 235-488 limits assumed): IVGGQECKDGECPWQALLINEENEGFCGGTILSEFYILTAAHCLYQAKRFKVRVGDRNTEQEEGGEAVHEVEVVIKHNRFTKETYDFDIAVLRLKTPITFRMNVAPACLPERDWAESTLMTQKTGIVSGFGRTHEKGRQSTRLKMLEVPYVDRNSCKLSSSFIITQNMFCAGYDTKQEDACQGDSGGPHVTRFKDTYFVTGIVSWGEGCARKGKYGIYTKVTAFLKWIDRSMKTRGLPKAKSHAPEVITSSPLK

[2] = target: Urokinase-type plasminogen activator (Homo sapiens, UniProt P00749); experiment: Inhibition of recombinant uPA (unknown origin) using Biophen CS-61(44) as substrate
Kallikrein-1 [3] = target: T2, Kallikrein-1 (Homo sapiens, UniProt P06870); experiment: Inhibition of human recombinant KLK1 expressed in Escherichia coli using Bachem I-1295 as substrate preincubated for 15 mins followed by substrate addition by microplate reader analysis
Target sequence in this assay (P06870 whole entry): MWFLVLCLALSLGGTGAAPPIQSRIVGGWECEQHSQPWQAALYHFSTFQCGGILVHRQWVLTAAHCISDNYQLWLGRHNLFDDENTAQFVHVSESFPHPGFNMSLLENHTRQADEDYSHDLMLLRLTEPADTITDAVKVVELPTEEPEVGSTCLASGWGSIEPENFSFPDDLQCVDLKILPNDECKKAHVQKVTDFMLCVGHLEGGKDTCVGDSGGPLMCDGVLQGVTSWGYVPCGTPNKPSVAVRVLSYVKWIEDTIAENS

Kallikrein-8 = target: T3, Kallikrein-8 (Homo sapiens, UniProt O60259); experiment: Inhibition of human recombinant KLK8 expressed in Escherichia coli using Bachem I-1120 as substrate preincubated for 15 mins followed by substrate addition by microplate reader analysis
T3 sequence (O60259 whole entry): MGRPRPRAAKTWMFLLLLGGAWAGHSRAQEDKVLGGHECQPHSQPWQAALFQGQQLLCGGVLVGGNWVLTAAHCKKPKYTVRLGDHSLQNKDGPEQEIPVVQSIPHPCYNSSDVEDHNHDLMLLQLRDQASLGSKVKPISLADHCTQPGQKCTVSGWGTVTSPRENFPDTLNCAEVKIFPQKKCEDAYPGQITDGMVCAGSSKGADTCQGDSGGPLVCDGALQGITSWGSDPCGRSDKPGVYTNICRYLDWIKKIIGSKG

[4] = target: Tissue-type plasminogen activator (Homo sapiens, UniProt P00750); experiment: Inhibition of recombinant tPA (unknown origin) using Biophen CS-05(88) as substrate
Tissue-type plasminogen activator, sequence (P00750 whole entry): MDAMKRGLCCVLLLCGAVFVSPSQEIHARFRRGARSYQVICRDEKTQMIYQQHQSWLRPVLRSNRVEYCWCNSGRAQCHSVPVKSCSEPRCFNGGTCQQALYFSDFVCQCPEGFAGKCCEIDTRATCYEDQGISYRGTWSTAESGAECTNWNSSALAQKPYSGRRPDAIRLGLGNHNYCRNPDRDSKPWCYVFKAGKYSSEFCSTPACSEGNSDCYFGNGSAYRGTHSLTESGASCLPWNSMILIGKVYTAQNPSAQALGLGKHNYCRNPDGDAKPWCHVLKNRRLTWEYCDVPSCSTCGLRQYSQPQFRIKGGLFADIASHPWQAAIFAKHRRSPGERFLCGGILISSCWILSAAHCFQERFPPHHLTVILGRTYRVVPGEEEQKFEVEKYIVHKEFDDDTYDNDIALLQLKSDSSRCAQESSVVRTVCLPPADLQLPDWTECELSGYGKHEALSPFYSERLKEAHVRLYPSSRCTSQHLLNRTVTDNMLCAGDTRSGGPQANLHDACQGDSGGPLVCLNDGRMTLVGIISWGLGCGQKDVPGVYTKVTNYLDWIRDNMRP

Acetylcholinesterase = Acetylcholinesterase (Electrophorus electricus, UniProt O42275); experiment: Inhibition of Electrophorus electricus AChE using acetylthiocholine iodide as substrate by 5-5'-Dithiobis(2 nitrobenzoic acid)-based assay
Acetylcholinesterase, sequence (O42275 whole entry): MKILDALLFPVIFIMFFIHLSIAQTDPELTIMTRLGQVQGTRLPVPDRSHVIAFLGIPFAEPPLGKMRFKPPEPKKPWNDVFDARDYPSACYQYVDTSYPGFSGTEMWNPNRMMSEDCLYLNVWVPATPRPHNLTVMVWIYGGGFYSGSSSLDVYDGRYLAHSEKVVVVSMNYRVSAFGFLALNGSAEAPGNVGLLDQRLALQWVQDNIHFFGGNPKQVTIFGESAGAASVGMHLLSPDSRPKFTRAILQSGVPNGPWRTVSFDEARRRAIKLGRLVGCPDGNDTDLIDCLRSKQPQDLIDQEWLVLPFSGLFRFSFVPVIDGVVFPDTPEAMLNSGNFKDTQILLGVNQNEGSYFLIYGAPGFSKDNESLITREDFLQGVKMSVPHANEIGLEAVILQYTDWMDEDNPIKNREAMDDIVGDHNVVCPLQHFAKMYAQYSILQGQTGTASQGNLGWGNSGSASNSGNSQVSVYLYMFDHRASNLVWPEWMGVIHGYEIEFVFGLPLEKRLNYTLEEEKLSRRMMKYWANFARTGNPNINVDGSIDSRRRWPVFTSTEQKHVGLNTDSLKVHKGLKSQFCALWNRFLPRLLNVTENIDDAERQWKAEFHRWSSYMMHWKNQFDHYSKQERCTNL

Plasminogen = Plasminogen (Homo sapiens, UniProt P00747); experiment: Inhibition of human plasma plasmin using Biophen CS-21(66) as substrate; assay type: cell-free
Plasminogen, sequence (P00747 97-580 limits assumed): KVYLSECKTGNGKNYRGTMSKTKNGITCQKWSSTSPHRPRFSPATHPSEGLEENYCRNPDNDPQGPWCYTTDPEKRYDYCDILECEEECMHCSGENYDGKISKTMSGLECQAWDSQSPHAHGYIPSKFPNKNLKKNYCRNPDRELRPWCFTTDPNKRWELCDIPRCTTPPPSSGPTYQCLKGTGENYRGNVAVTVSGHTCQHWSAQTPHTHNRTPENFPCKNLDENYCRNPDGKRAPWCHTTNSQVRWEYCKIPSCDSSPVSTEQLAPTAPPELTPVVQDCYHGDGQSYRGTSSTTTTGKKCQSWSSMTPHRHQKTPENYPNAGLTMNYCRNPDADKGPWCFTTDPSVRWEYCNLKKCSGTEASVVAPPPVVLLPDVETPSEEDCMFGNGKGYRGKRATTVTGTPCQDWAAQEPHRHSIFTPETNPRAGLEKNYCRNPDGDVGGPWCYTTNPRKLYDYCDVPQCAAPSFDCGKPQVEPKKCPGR
Plasminogen, sequence (P00747 581-810 limits assumed): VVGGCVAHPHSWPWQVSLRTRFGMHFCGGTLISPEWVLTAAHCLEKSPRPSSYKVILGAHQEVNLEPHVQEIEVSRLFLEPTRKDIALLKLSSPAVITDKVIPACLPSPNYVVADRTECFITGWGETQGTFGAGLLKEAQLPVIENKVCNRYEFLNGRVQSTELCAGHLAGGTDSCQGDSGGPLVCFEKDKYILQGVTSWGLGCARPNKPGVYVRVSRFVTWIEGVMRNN

Kallikrein-4 [5] = target: T4, Kallikrein-4 (Homo sapiens, UniProt Q9Y5K2); experiment: Inhibition of human recombinant KLK4 expressed in Escherichia coli using Bachem I-1120 as substrate preincubated for 15 mins followed by substrate addition by microplate reader analysis
T4 sequence (Q9Y5K2 whole entry): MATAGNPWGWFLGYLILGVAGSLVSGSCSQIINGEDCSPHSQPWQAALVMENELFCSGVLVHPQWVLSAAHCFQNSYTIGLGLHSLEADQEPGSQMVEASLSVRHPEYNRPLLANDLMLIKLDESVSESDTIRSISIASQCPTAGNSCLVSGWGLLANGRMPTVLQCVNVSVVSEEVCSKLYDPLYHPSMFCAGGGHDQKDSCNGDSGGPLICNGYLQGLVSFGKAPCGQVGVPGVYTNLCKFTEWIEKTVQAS

Kallikrein-2 = target: T5, Kallikrein-2 (Homo sapiens, UniProt P20151); experiment: Inhibition of human recombinant KLK2 expressed in Escherichia coli using Bachem I-1295 as substrate preincubated for 15 mins followed by substrate addition by microplate reader analysis
T5 sequence (P20151 whole entry): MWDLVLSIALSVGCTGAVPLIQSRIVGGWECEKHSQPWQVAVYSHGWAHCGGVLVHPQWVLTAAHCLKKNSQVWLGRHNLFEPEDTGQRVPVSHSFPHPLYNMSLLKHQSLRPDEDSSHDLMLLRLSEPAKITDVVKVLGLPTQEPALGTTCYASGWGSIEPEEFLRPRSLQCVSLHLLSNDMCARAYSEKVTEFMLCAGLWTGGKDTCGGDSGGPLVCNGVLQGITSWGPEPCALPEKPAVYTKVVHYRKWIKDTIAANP

Kallikrein-4 [6] = target: T4, Kallikrein-4; experiment: Reversible inhibition of human recombinant KLK4 expressed in Escherichia coli using Bachem I-1120 as fluorogenic substrate at 100 times IC50 preincubated for 15 mins followed by 100 fold dilution measured for 1 hr by microplate reader analysis
Prothrombin [7] = target: T1, Prothrombin; experiment: Reversible inhibition of human thrombin using Biophen CS-21(66) as substrate at 100 times IC50 preincubated for 15 mins followed by 100 fold dilution measured for 1 hr
[8] = target: T6, Kallikrein-8 (Homo sapiens) (UniProt O60259); experiment: Reversible inhibition of human recombinant KLK8 expressed in Escherichia coli using Boc-Val-Pro-Arg-AMC as fluorogenic substrate at 100 times IC50 preincubated for 15 mins followed by 100 fold dilution measured for 1 hr
T6 sequence (whole entry): T3 sequence (O60259 whole entry)

[9] = target: T7, Kallikrein-2 (Homo sapiens) (UniProt P20151); experiment: Reversible inhibition of human recombinant KLK2 expressed in Escherichia coli using H-Pro-Phe-Arg-AMC as fluorogenic substrate at 100 times IC50 preincubated for 15 mins followed by 100 fold dilution measured for 1 hr
T7 sequence (whole entry): T5 sequence (P20151 whole entry)

[10] = target: T7, Kallikrein-2 (Homo sapiens); experiment: Irreversible inhibition of human recombinant KLK2 expressed in Escherichia coli using H-Pro-Phe-Arg-AMC as fluorogenic substrate at 100 times IC50 preincubated for 15 mins followed by 100 fold dilution measured for 1 hr
Homo sapiens [11] = species on record: Homo sapiens; experiment: Selectivity ratio of IC50 for human recombinant KLK2 to IC50 for human recombinant KLK4
Homo sapiens [12] = species on record: Homo sapiens; experiment: Selectivity ratio of IC50 for human plasma plasmin to IC50 for human recombinant KLK4
Homo sapiens [13] = species on record: Homo sapiens; experiment: Selectivity ratio of IC50 for human plasma thrombin to IC50 for human recombinant KLK4
Homo sapiens [14] = species on record: Homo sapiens; experiment: Selectivity ratio of IC50 for recombinant tPA (unknown origin) to IC50 for human recombinant KLK4
Homo sapiens [15] = species on record: Homo sapiens; experiment: Selectivity ratio of IC50 for human recombinant KLK8 to IC50 for human recombinant KLK4
Homo sapiens [16] = species on record: Homo sapiens; experiment: Selectivity ratio of IC50 for human recombinant KLK1 to IC50 for human recombinant KLK4
Homo sapiens [17] = species on record: Homo sapiens; experiment: Selectivity ratio of IC50 for recombinant uPA (unknown origin) to IC50 for human recombinant KLK4
[18] = Selectivity ratio of IC50 for Electrophorus electricus AChE to IC50 for human recombinant KLK4
Kallikrein-1 [19] = target: T2, Kallikrein-1; experiment: Reversible inhibition of human recombinant KLK1 expressed in Escherichia coli using H-Pro-Phe-Arg-AMC as fluorogenic substrate at 100 times IC50 preincubated for 15 mins followed by 100 fold dilution measured for 1 hr
Target sequence in this assay (P06870 25-262 limits assumed): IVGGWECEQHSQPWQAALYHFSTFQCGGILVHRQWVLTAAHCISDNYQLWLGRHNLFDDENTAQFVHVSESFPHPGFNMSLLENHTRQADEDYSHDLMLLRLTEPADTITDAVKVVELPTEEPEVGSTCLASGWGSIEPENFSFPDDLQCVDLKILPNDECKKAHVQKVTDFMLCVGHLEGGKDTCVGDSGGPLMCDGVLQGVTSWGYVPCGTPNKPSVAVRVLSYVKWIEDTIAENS

Homo sapiens [20] = species on record: Homo sapiens; experiment: Selectivity ratio of IC50 for factor 10a (unknown origin) to IC50 for human recombinant KLK4
[21] = target: T6, Kallikrein-8 (Homo sapiens); experiment: Irreversible inhibition of human recombinant KLK8 expressed in Escherichia coli using Boc-Val-Pro-Arg-AMC as fluorogenic substrate at 100 times IC50 preincubated for 15 mins followed by 100 fold dilution measured for 1 hr
Kallikrein-1 [22] = target: T2, Kallikrein-1; experiment: Irreversible inhibition of human recombinant KLK1 expressed in Escherichia coli using H-Pro-Phe-Arg-AMC as fluorogenic substrate at 100 times IC50 preincubated for 15 mins followed by 100 fold dilution measured for 1 hr
Target sequence in this assay (P06870 25-262 limits assumed): as above

[23] = target: T8, Subtilisin Carlsberg (Bacillus licheniformis) (UniProt P00780); experiment: Inhibition of Bacillus licheniformis subtilisin using Suc-Ala-Ala-Pro-Phe-AMC as substrate by spectrofluorometry
T8 sequence (whole entry): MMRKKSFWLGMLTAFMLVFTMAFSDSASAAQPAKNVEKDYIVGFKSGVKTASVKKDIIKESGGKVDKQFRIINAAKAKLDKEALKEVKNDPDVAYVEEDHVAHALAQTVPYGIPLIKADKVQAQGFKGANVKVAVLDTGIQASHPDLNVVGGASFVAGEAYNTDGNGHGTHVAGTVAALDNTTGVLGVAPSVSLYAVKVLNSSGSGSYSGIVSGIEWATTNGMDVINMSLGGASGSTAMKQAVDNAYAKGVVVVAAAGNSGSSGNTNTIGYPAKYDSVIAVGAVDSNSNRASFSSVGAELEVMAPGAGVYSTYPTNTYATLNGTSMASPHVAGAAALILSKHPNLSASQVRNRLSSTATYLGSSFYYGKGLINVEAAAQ

Compound | IC50 (Prothrombin [1]) [nM] | IC50 (Coagulation factor X) [nM] | IC50 [2] [nM] | IC50 (Kallikrein-1 [3]) [nM] | IC50 (Kallikrein-8) [nM] | IC50 [4] [nM] | IC50 (Acetylcholinesterase) [nM] | IC50 (Plasminogen) [nM] | IC50 (Kallikrein-4 [5]) [nM] | IC50 (Kallikrein-2) [nM] | reversible inhibition (activity call) (Kallikrein-4 [6]) | also measured
Nc1ccc(C(NC(=O)OCc2ccccc2)P(=O)(Oc2ccccc2)Oc2ccccc2)cc1 (stereo not given) | > 10000 | > 10000 | > 10000 | > 10000 | > 10000 | > 10000 | > 10000 | > 10000 | > 10000 | > 2500 | – | –
N=C(N)Nc1ccc(CC(NC(=O)OCc2ccccc2)P(=O)(Oc2ccccc2)Oc2ccccc2)cc1 (stereo not given) | – | > 10000 | – | > 10000 | 170 | – | > 20000 | – | – | 530 | Active | inhibition (Prothrombin [7]): Active; inhibition [8]: Active; inhibition [9]: Active
N=C(N)Nc1ccc(CP(=O)(Oc2ccccc2)Oc2ccccc2)cc1 | > 10000 | > 10000 | 1400 | > 2500 | 1440 | > 10000 | > 10000 | > 10000 | 250 | 2440 | Active | inhibition [10]: Active; inhibition [8]: Active
N=C(N)Nc1ccc(C(NC(=O)OCc2ccccc2)P(=O)(Oc2ccccc2)Oc2ccccc2)cc1 (stereo not given) | 250000 | 3600 | 2700 | 240 | 1160 | 250000 | > 10000 | 4900 | 3.4 | 220 | Active | Ratio IC50 (Homo sapiens [11]): 70; Ratio IC50 (Homo sapiens [12]): > 300; Ratio IC50 (Homo sapiens [13]): > 300; Ratio IC50 (Homo sapiens [14]): > 300; Ratio IC50 (Homo sapiens [15]): > 300; Ratio IC50 (Homo sapiens [16]): 70; Ratio IC50 (Homo sapiens [17]): > 300; inhibition [9]: Active; Ratio IC50 [18]: > 300; inhibition (Kallikrein-1 [19]): Active; Ratio IC50 (Homo sapiens [20]): > 300
N=C(N)NCCCC(NC(=O)OCc1ccccc1)P(=O)(Oc1ccccc1)Oc1ccccc1 (stereo not given) | 800 | > 10000 | – | 820 | 125 | – | > 10000 | – | 40 | > 2500 | Active | inhibition (Prothrombin [7]): Active
N=C(N)c1ccc(C(NC(=O)OCc2ccccc2)P(=O)(Oc2ccccc2)Oc2ccccc2)cc1 (stereo not given) | 196 | > 2500 | – | > 2500 | 790 | > 2500 | > 10000 | > 2500 | 41 | > 2500 | Active | inhibition (Prothrombin [7]): Active; inhibition [21]: Active
Nc1ccc(CC(NC(=O)OCc2ccccc2)P(=O)(Oc2ccccc2)Oc2ccccc2)cc1 (stereo not given) | 62000 | > 10000 | 19800 | > 10000 | > 10000 | 32000 | – | – | > 10000 | > 10000 | – | –
O=C(NC(c1ccc(O)cc1)P(=O)(Oc1ccccc1)Oc1ccccc1)OCc1ccccc1 (stereo not given) | > 10000 | > 10000 | > 10000 | 86 | > 10000 | > 10000 | > 10000 | > 10000 | > 10000 | > 2500 | – | inhibition (Kallikrein-1 [22]): Active
N=C(N)c1ccc(CCC(NC(=O)OCc2ccccc2)P(=O)(Oc2ccccc2)Oc2ccccc2)cc1 (stereo not given) | – | – | – | 1370 | 5000 | – | > 20000 | – | 15 | 720 | Active | inhibition [9]: Active
N=C(N)Nc1ccc(CCP(=O)(Oc2ccccc2)Oc2ccccc2)cc1 | > 10000 | > 10000 | 7.9 | > 2500 | 170 | > 10000 | > 10000 | > 10000 | 80 | 3020 | Active | inhibition [10]: Active; inhibition [8]: Active
NCCCC(NC(=O)OCc1ccccc1)P(=O)(Oc1ccccc1)Oc1ccccc1 (stereo not given) | > 2500 | > 250000 | > 250000 | > 10000 | > 10000 | > 2500 | > 10000 | > 250000 | > 2500 | > 2500 | – | –
CC(C)[C@H](NC(=O)OC(C)(C)C)C(=O)N1CCC[C@H]1C(=O)N[C@H](Cc1ccccc1)P(=O)(Oc1ccc(CS)cc1)Oc1ccc(CS)cc1 | – | – | – | – | – | – | – | – | – | – | – | Kapp [23]: 1 ×10⁵ /M/s
